Measurements: US20250186420A1, “POLYMETHINIUM SALTS AS INHIBITORS OF DIHYDROOROTATE DEHYDROGENASE” (UNIVERZITA KARLOVA, priority 2022, published 2025)

Columns and labels:
Format in all cases: cell-based
[1] = tested on: PC-3; test: xCELLigence real-time impedance cell migration; details: for Normalized cell index (cell migration): cell index normalized to 1.0 at addition of test agent, concentration based on IC50 for the cell line
Method: (§1) The xCELLigence system based on real-time cell impedance analysis (RTCA) was used to determine invasiveness and migration rates. The xCELLigence system consists of four main components: an RTCA DP station, an RTCA computer with integrated software, and CIM 16 disposable plates. First, the optimal cell seeding concentration for the proliferation and invasiveness assay was determined. After seeding the total number of cells in 200 μl medium into each well in E-plate 16, cell adherence and proliferation were monitored every 15 minutes. For the invasiveness assay, the optimal response was found in a well containing 20,000 cells. After coating the upper wells with matrigel and adding FBS as a chemoattractant, cells were seeded in 100 μl medium in each well of a CIM-plate 16. Adherence and growth of cells through the matrigel was monitored every 15 minutes. The duration of all experiments was 150 hours. The relative invasiveness rate was defined as the cellular index for matrigel-coated wells (cells must spread/pass through the matrigel to generate a signal) at a given time point. The impedance of electron flow due to adherent cells is given by a unitless parameter called the cell index (CI), where CI=(impedance at time point n-impedance in the absence of cells)/nominal impedance value). In order to compare individual cell lines/treatment, these cell indices were normalized to 1.0 at the time the test agents were added. Concentrations of compounds were chosen based on the IC50 inhibitory concentration for each cell line.

[2] = tested on: PNTA; test: xCELLigence real-time impedance cell migration; details: for Normalized cell index (cell migration): cell index normalized to 1.0 at addition of test agent, concentration based on IC50 for the cell line
Method: as §1

[3] = tested on: U-2 OS; test: xCELLigence real-time impedance cell migration; details: for Normalized cell index (cell migration): cell index normalized to 1.0 at addition of test agent, concentration based on IC50 for the cell line
Method: as §1

[4] = tested on: PC-3; test: xCELLigence real-time impedance cell invasiveness (matrigel); details: for Normalized cell index (cell invasiveness): matrigel-coated wells, normalized to 1.0 at addition of test agent, concentration based on IC50 for the cell line
Method: as §1

[5] = tested on: PNTA; test: as above; details: for Normalized cell index (cell invasiveness): matrigel-coated wells, normalized to 1.0 at addition of test agent, concentration based on IC50 for the cell line
Method: as §1

[6] = tested on: U-2 OS; test: as above; details: for Normalized cell index (cell invasiveness): matrigel-coated wells, normalized to 1.0 at addition of test agent, concentration based on IC50 for the cell line
Method: as §1

[7] = tested on: DHODH-dependent respiration in PC-3; test: Inhibition of DHODH-dependent respiration (Oxygraph-2k); details: PC-3 tumor line; test substance 1 to 4 nM; permeabilized cells
Method: (§2) DHODH-dependent respiration was performed as follows. Cells were trypsinized, washed with PBS, resuspended in an amount of 2×10^6 cells per ml Mir05 medium (0.5 mM EGTA, 3 mM MgCl2, 60 mM K-lactobionate, 20 mM taurine, 10 mM KH2PO4, 110 mM sucrose, 1 g/L bovine serum albumin, 20 mM Hepes, pH 7.1 at 30° C.) and transferred to the chamber of the Oxygraph-2k instrument (Oroboros). Respiration was measured at 37° C. Cells were permeabilized with 5 μg of digitonin per 10^6 cells, and complex I inhibitor (0.3 μM rotenone) and test substance were added at concentrations from 1 to 4 nM before adding the substrate. DHODH-mediated respiration was assessed by subtracting the residual rate of respiration remaining after the addition of 30 μM leflunomide from the rate of respiration in the presence of 1 mM dihydroorotate (DHO), 3 mM ADP, and 10 μM cytochrome c.

[8] = tested on: DHODH-dependent respiration in PNT1A cell line; test: as above; details: model of normal prostate tissue, test substance 1 to 4 nM, permeabilized cells
Method: as §2

[9] = tested on: DHODH-dependent respiration in U-2 OS; test: as above; details: U-2 OS tumor line; test substance 1 to 4 nM; permeabilized cells
Method: as §2

Structure (SMILES) | Control-substance (difference of normalized cell index, cell migration) [1] | Normalized cell index (cell migration) [1] | Control-substance (difference of normalized cell index, cell migration) [2] | Normalized cell index (cell migration) [2] | Control-substance (difference of normalized cell index, cell migration) [3] | Normalized cell index (cell migration) [3] | Control-substance (difference of normalized cell index, cell invasiveness) [4] | Normalized cell index (cell invasiveness) [4] | Control-substance (difference of normalized cell index, cell invasiveness) [5] | Normalized cell index (cell invasiveness) [5] | Control-substance (difference of normalized cell index, cell invasiveness) [6] | Normalized cell index (cell invasiveness) [6] | DHODH-dependent respiration [7] | DHODH-dependent respiration [8] | DHODH-dependent respiration [9]
CCCN1/C(=C/C=C(/C=C/c2sc3ccccc3[n+]2CCC)c2ccccc2)Sc2ccccc21.[I-] [Substance 1] | 30.0 | 8.8 | 15.2 | 3.4 | 20.8 | 3.5 | 21.4 | 1.4 | 16.9 | 2.8 | 24.3 | 1.3 | caused a decrease in DHODH-dependent respiration | unaffected | caused a decrease in DHODH-dependent respiration
CCCN1/C(=C/C=C(/C=C/C2=[N+](CCC)c3ccccc3C2(C)C)c2ccncc2)C(C)(C)c2ccccc21.[I-] [Substance 2] | 19.3 | 19.5 | 11.6 | 7.0 | 20.4 | 3.9 | 17.4 | 5.4 | 16.5 | 3.2 | 23.7 | 1.9 | caused a decrease in DHODH-dependent respiration | unaffected | caused a decrease in DHODH-dependent respiration
